# Patent US20210255193A1, “LYSINE REACTIVE PROBES AND USES THEREOF” (The Scripps Research Institute, priority 2017, published 2021)
# What was measured:
# Assay in all cases: competitive isoTOP-ABPP
# Assay type in all cases: binding
# DCTN2 Dynactin subunit 2 = target: T1, DCTN2 Dynactin subunit 2 (Homo sapiens, UniProt Q13561); conditions: for isoTOP-ABPP reactivity ratio at lysine Q13561_K175: 231 sol
# T1 construct: isoTOP-ABPP experiments performed in cell lysates (in vitro); endogenous in cells; host or cells: soluble proteome of human cancer cell lines (MDA-MB-231, Ramos, Jurkat)
# Outline: (§1)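 Competition format: fragment (50 μM activated ester, 100 μM guanidinylating agent) versus vehicle in lysate, then lysine probe STP-alkyne at 0.1 mM for 1 h. Quantitation by light/heavy TEV-tag MS1 peak areas, reported as R.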
# [1] = target: T2, MRPS24 28S ribosomal protein S24, mitochondrial (Homo sapiens, UniProt Q96EL2)
# T2 construct: isoTOP-ABPP experiments performed in cell lysates (in vitro); endogenous in cells; host or cells: soluble proteome of human cancer cell lines (MDA-MB-231; Ramos and Jurkat also prepared)
# Outline: as §1
# [2] = target: T3, NPEPPS Puromycin-sensitive aminopeptidase (Homo sapiens, UniProt P55786)
# T3 construct: isoTOP-ABPP experiments performed in cell lysates (in vitro); endogenous in cells; host or cells: soluble proteome of human cancer cell lines (MDA-MB-231, Ramos, Jurkat)
# Outline: as §1
# [3] = target: T4, PNPO Pyridoxine-5-phosphate oxidase (Homo sapiens, UniProt Q9NVS9)
# T4 construct: endogenous in cells; host or cells: MDA-MB-231 (soluble fraction of lysate)
# T4 sequence (Q9NVS9 1-261): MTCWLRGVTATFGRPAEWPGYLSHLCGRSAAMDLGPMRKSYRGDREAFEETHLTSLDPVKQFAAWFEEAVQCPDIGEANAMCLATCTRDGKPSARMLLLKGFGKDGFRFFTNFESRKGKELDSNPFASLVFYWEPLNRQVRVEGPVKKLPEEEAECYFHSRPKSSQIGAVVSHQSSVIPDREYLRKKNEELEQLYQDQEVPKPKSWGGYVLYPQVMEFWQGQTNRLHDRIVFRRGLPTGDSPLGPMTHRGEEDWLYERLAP
# Outline: as §1
# [4] = target: T5, POLR2L DNA-directed RNA polymerases I, II, and III subunit (Homo sapiens, UniProt P62875); conditions: for isoTOP-ABPP ratio, lysine P62875_K67: 50 uM_231_sol_in vitro
# T5 construct: isoTOP-ABPP experiments performed in cell lysates (in vitro); endogenous in cells; host or cells: soluble proteome of human cancer cell lines (MDA-MB-231, Ramos, Jurkat)
# Outline: as §1
# T3 sequence (P55786 whole entry): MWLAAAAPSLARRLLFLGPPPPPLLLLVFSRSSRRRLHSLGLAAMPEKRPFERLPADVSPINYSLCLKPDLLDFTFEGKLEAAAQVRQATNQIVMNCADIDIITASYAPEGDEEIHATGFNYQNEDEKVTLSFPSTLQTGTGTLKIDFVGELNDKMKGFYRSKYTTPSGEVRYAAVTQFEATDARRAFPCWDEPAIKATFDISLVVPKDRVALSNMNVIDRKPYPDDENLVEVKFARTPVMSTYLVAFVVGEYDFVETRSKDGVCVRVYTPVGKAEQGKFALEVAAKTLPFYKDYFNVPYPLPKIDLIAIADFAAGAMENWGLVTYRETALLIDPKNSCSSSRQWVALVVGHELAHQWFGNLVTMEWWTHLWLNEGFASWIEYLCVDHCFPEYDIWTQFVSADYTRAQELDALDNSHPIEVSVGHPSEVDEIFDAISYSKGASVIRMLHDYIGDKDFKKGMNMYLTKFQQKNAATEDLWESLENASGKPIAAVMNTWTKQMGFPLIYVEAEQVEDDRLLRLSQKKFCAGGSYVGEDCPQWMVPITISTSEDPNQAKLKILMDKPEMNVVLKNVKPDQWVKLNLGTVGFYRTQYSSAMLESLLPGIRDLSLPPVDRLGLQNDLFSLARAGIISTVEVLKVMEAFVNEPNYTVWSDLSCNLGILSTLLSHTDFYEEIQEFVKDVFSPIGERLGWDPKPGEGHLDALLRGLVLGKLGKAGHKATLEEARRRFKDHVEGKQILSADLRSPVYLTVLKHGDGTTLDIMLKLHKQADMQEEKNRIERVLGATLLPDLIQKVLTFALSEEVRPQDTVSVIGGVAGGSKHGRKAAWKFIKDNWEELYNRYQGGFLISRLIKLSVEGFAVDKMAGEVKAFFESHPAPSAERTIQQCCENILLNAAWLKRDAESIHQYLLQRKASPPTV
# T1 sequence (Q13561 whole entry): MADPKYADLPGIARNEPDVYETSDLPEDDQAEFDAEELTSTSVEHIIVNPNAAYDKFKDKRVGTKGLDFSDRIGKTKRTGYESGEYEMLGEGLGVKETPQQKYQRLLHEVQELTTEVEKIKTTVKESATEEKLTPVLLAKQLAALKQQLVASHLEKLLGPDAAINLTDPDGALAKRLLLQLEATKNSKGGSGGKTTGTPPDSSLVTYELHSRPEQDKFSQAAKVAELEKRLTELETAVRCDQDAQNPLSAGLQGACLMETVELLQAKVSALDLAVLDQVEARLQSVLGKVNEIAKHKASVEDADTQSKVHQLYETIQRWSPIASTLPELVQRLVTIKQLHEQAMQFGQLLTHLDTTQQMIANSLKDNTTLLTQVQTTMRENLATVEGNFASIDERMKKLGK
compound,measurement,setting,value
"NC(=O)c1cc(C(F)(F)F)cc(C(F)(F)F)c1 [fragment 51, reference compound]","isoTOP-ABPP ratio, lysine Q13561_K175",DCTN2 Dynactin subunit 2; 50 uM_231_sol_in vitro,0.9
same,"isoTOP-ABPP ratio, lysine Q96EL2_K94",[1]; 50 uM_231_sol_in vitro,0.9
same,"isoTOP-ABPP ratio, lysine P55786_K712",[2]; 50 uM_231_sol_in vitro,1.0
same,"isoTOP-ABPP ratio, lysine Q9NVS9_K100",[3]; 50 uM_231_sol_in vitro,0.9
same,"isoTOP-ABPP ratio, lysine P62875_K67",[4],1.0
"O=C(CCc1cn(-c2ccccc2)nc1-c1ccccc1)Oc1c(F)c(F)c(F)c(F)c1F [fragment 19, Pentafluorophenyl 3-(1,3-diphenyl-1H-pyrazol-4-yl)propanoate]",R value (DMSO/fragment) for probe 1 labeling,"[1]; Q96EL2_K94, 50 uM, 231 sol, in vitro",1.4
same,R value (DMSO/fragment) for probe 1 labeling,"[2]; P55786_K712, 50 uM, 231 sol, in vitro",1.0
same,blockade of probe 1 labeling of K100,[3]; PNPO K100,fully blocking probe 1 labeling
same,R value (DMSO/fragment) for probe 1 labeling,"[3]; Q9NVS9_K100, 50 uM, 231 sol, in vitro",20.0
same,R value (DMSO/fragment) for probe 1 labeling,"[4]; P62875_K67, 50 uM, 231 sol, in vitro",1.0
"COc1cc(CCC(=O)Oc2ccc([N+](=O)[O-])cc2[N+](=O)[O-])cc(OC)c1OC [fragment 33, 2,4-Dinitrophenyl 3-(3,4,5-trimethoxyphenyl)propanoate]",isoTOP-ABPP reactivity ratio at lysine Q13561_K175,"DCTN2 Dynactin subunit 2; 50 uM, in vitro",1.6
same,isoTOP-ABPP reactivity ratio at lysine Q96EL2_K94,"[1]; 50 uM, 231 sol, in vitro",1.4
same,isoTOP-ABPP reactivity ratio at lysine P55786_K712,"[2]; 50 uM, 231 sol, in vitro",1.2
same,isoTOP-ABPP reactivity ratio at lysine Q9NVS9_K100,"[3]; 50 uM, 231 sol, in vitro",1.2
"O=C(Oc1ccc([N+](=O)[O-])cc1[N+](=O)[O-])C(c1ccccc1)c1ccccc1 [fragment 30, 2,4-Dinitrophenyl 2,2-diphenylacetate]",isoTOP-ABPP reactivity ratio at lysine Q13561_K175,"DCTN2 Dynactin subunit 2; 50 uM, in vitro",3.4
same,isoTOP-ABPP reactivity ratio at lysine P55786_K712,"[2]; 50 uM, 231 sol, in vitro",1.5
same,isoTOP-ABPP reactivity ratio at lysine Q9NVS9_K100,"[3]; 50 uM, 231 sol, in vitro",1.0
same,isoTOP-ABPP reactivity ratio at lysine P62875_K67,"[4]; 50 uM, 231 sol, in vitro",1.8
"O=C(CCc1cn(-c2ccccc2)nc1-c1ccccc1)Oc1ccc([N+](=O)[O-])cc1[N+](=O)[O-] [fragment 29, 2,4-Dinitrophenyl 3-(1,3-diphenyl-1H-pyrazol-4-yl)propanoate]",isoTOP-ABPP reactivity ratio at lysine Q13561_K175,"DCTN2 Dynactin subunit 2; 50 uM, in vitro",1.3
same,isoTOP-ABPP reactivity ratio at lysine Q96EL2_K94,"[1]; 50 uM, 231 sol, in vitro",2.2
same,isoTOP-ABPP reactivity ratio at lysine P55786_K712,"[2]; 50 uM, 231 sol, in vitro",1.1
same,isoTOP-ABPP reactivity ratio at lysine Q9NVS9_K100,"[3]; 50 uM, 231 sol, in vitro",1.9
"CC(=O)Oc1ccc([N+](=O)[O-])cc1[N+](=O)[O-] [fragment 43, 2,4-Dinitrophenyl acetate]",isoTOP-ABPP ratio (R) at liganded lysine Q13561_K175,"DCTN2 Dynactin subunit 2; 50 uM, in vitro, sol, 231",0.6
same,isoTOP-ABPP ratio (R) at liganded lysine Q96EL2_K94,"[1]; 50 uM, in vitro, sol, 231",1.1
same,isoTOP-ABPP ratio (R) at liganded lysine P55786_K712,"[2]; 50 uM, in vitro, sol, 231",2.3
same,isoTOP-ABPP ratio (R) at liganded lysine Q9NVS9_K100,"[3]; 50 uM, in vitro, sol, 231",1.0
"O=C(CCc1ccc2c(c1)OCO2)Oc1ccc([N+](=O)[O-])cc1[N+](=O)[O-] [fragment 45, 2,4-Dinitrophenyl 3-(benzo[d][1,3]dioxol-5-yl)propanoate]","isoTOP-ABPP ratio, lysine Q13561_K175",DCTN2 Dynactin subunit 2; 50 uM_231_sol_in vitro,1.6
same,"isoTOP-ABPP ratio, lysine P55786_K712",[2]; 50 uM_231_sol_in vitro,1.3
same,"isoTOP-ABPP ratio, lysine Q9NVS9_K100",[3]; 50 uM_231_sol_in vitro,1.0
same,"isoTOP-ABPP ratio, lysine P62875_K67",[4],2.8
"COC(=O)NC(=NC(=O)OCC1c2ccccc2-c2ccccc21)n1cccn1 [fragment 49, N-Methoxycarbonyl-N′-9-fluorenylmethoxycarbonyl-pyrazole-1-carboxamidine]","isoTOP-ABPP ratio, lysine Q13561_K175",DCTN2 Dynactin subunit 2; 100 uM_231_sol_in vitro,1.5
same,"isoTOP-ABPP ratio, lysine Q96EL2_K94",[1]; 100 uM_231_sol_in vitro,3.0
same,"isoTOP-ABPP ratio, lysine P55786_K712",[2]; 100 uM_231_sol_in vitro,1.3
same,"isoTOP-ABPP ratio, lysine Q9NVS9_K100",[3]; 100 uM_231_sol_in vitro,3.3
"CCn1cc(C(=O)Oc2c(F)c(F)c(F)c(F)c2F)c(=O)c2ccc(C)nc21 [fragment 28, Pentafluorophenyl 1-ethyl-7-methyl-4-oxo-1,4-dihydro-1,8-naphthyridine-3-carboxylate]",isoTOP-ABPP reactivity ratio at lysine Q96EL2_K94,"[1]; 50 uM, 231 sol, in vitro",1.0
same,isoTOP-ABPP reactivity ratio at lysine P55786_K712,"[2]; 50 uM, 231 sol, in vitro",1.0
same,isoTOP-ABPP reactivity ratio at lysine Q9NVS9_K100,"[3]; 50 uM, 231 sol, in vitro",0.9
same,isoTOP-ABPP reactivity ratio at lysine P62875_K67,"[4]; 50 uM, 231 sol, in vitro",1.0
"Cn1cc(CC(=O)Oc2ccc([N+](=O)[O-])cc2[N+](=O)[O-])c2ccccc21 [fragment 32, 2,4-Dinitrophenyl 2-(1-methyl-1H-indol-3-yl)acetate]",isoTOP-ABPP reactivity ratio at lysine Q13561_K175,"DCTN2 Dynactin subunit 2; 50 uM, in vitro",4.4
same,isoTOP-ABPP reactivity ratio at lysine Q96EL2_K94,"[1]; 50 uM, 231 sol, in vitro",5.1
same,isoTOP-ABPP reactivity ratio at lysine P55786_K712,"[2]; 50 uM, 231 sol, in vitro",1.4
same,isoTOP-ABPP reactivity ratio at lysine Q9NVS9_K100,"[3]; 50 uM, 231 sol, in vitro",3.6
